We go through 23 molecules from patent US6379563B1, “Alkylamines as biofilm deactivation agents” (Albemarle Corporation, priority 2000, dated 2002).

The conditions of data set [1]: from Bodor, Gabanyi, Wang, JACS 111, 3783 (1989); cited from earlier work.
Data set [2] relates to Pseudomonas aeruginosa (ATCC 15442) biofilms. In words: MBEC test, 24-hour biofilm, one hour biocide challenge.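 On all read-outs here: Peg-grown biofilms exposed to biocide, then regrowth in broth 18 h at 35 °C, turbidity by absorbance at 650 nm, above 0.100 counted as growth.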 It counts as cell-based. To be noted: for minimum biofilm eradication concentration (MBEC) / MBC: Pseudomonas aeruginosa, ATCC15442, 1 h; for minimum biofilm eradication concentration (MBEC) / MBEC, avg. / MBEC, ppm (first of duplicate runs) / MBEC, ppm (second of duplicate runs) / biofilm deactivation at 200 ppm (regrowth optical density measurements): 24-hour biofilm, 1 hour contact.
Description: The MBEC technique consists of growing identical 24-hour biofilms on 96 pegs arrayed in 12 rows and 8 columns. The biofilms then are challenged with decreasing concentrations of selected antibiotics and/or biocides. After a certain challenge time (generally one hour), the biofilms are placed in 96 individual wells of growth media and ultra-sonicated to deactivate any surviving organisms. After culturing overnight, the wells are checked for turbidity. Clear, transparent wells indicate complete deactivation of the biofilm. Conversely, turbidity (“growth”) indicates lack of complete deactivation of the biofilm.
The minimum biofilm deactivation concentration (MBEC) is defined as the minimum concentration of an agent that completely deactivates biofilm bacteria. […] Unless otherwise indicated, the biofilms used in the examples below consisted of a pure culture of Pseudomonas aeruginosa (ATCC 15442).
Pseudomonas aeruginosa (ATCC 15442) biofilms were prepared on the 96 pegs of the MBEC plate by aerobic incubation in simple salts medium with 0.1% glucose (24 hours, 35° C.). The pegs were rinsed in synthetic water (SW) and then challenged by the biocide for one hour. Following the biocide challenge, the pegs were rinsed twice with SW and then sonicated into Mueller-Hinton broth (225 μL per well). The broth was then incubated for 18 hours at 35° C.

The test system of data set [3] is 7-day biofilm formed using P. aeruginosa. In words: MBEC test, 7-day biofilm, one hour biocide challenge. Format: cell-based, Pseudomonas aeruginosa. The note with it: 1 hour contact; for MBEC, avg., Example 4 / MBEC, ppm (first of duplicate runs), Example 4 / MBEC, ppm (second of duplicate runs), Example 4: Example 4, ppm oxidant (as Cl2) or ppm active. From the text:
The MBEC technique consists of growing identical 24-hour biofilms on 96 pegs arrayed in 12 rows and 8 columns. The biofilms then are challenged with decreasing concentrations of selected antibiotics and/or biocides. After a certain challenge time (generally one hour), the biofilms are placed in 96 individual wells of growth media and ultra-sonicated to […] any surviving organisms. After culturing overnight, the wells are checked for turbidity. Clear, transparent wells indicate complete deactivation of the biofilm. Conversely, turbidity (“growth”) indicates lack of complete deactivation of the biofilm.
After the 18 hour incubation period, the recovery wells were checked for turbidity. Clear, transparent wells indicated complete deactivation of the biofilm. Conversely, turbidity indicated the lack of complete deactivation of the biofilm. The minimum biofilm deactivation concentration (MBEC) is defined as the minimum concentration of agent which results in complete deactivation of the biofilm. MBEC endpoints were unambiguously determined by absorbance at 650 nm. using UV visible spectroscopy. An absorbance >0.100 was considered a positive indication of growth.
Pseudomonas aeruginosa (ATCC 15442) biofilms were prepared as described in Example I. The 7-day biofilms were prepared by a modification of the above procedure. Each day, spent media was replaced with fresh media and inocula.
Older biofilms offer increased resistance to biocides. Studies were extended to 7-day biofilms formed using P. aeruginosa. The procedure used to form the 7-day biofilm was the same as in Example 1, except that each day, spent media was replaced with fresh media and inocula. This biofilm was then challenged with oxidizing and non-oxidizing biocides.
Another 7-day biofilm was prepared from P. aeruginosa, as in EXAMPLE 3. This biofilm was then challenged with several common oxidizing and non-oxidizing biocides.

Setting [4] is: average of duplicate runs, blends: total amount of components (1:1 ratio), read-out: MBEC, avg.
The mark [5] stands for this setting: blends: total amount of components (1:1 ratio), read-out: MBEC, ppm (first of duplicate runs).
The mark [6] stands for this setting: blends: total amount of components (1:1 ratio), read-out: MBEC, ppm (second of duplicate runs).
Where [7] appears, read: blends: total biocide, read-out: MBEC.
[8] abbreviates: average of duplicate runs, blends: total amount of components (1:1 ratio).
Where [9] appears, read: blends: total amount of components (1:1 ratio).
Where [10] appears, read: Example 3, ppm oxidant (as Cl2) or ppm active.
Where [11] appears, read: read-out: MBEC, avg., 24-hour biofilm, 1 hour contact, average of duplicate runs, blends: total amount of components (1:1 ratio).
Setting [12] is: read-out: MBEC, ppm (second of duplicate runs), 24-hour biofilm, 1 hour contact, blends: total amount of components (1:1 ratio).
The mark [13] stands for this setting: read-out: MBEC, ppm (first of duplicate runs), 24-hour biofilm, 1 hour contact, blends: total amount of components (1:1 ratio).

Like-named read-outs stand apart in the source and are kept apart here. Some results are limits rather than exact numbers.

`CCCCN` [1-Butylamine]: in data set [1], the logKow experimental is listed as 0.87.

On to `CCCCCCCCCCN` [1-Decylamine], for which the minimum biofilm eradication concentration (MBEC) in data set [2] (setting [4]), in data set [2] (setting [5]), in data set [2] (setting [6]) and in data set [2] (setting [7]) was 200 µg/mL throughout.

With `CCCCCCCCCCCCN` [1-Dodecylamine], the “MBEC on 7-day biofilm” value in data set [3] was 75 ppm. For the same molecule, the “MBEC, avg., Example 4” value in data set [3] is recorded as 75 ppm. Besides, the “MBEC, ppm (first of duplicate runs), Example 4” value in data set [3] was determined as 100 ppm. Also, in data set [3], the “MBEC, ppm (second of duplicate runs), Example 4” value is 50 ppm. For the same molecule, the minimum biofilm eradication concentration (MBEC) in data set [2] (setting [4]) was 25 µg/mL; in data set [2] (setting [5]) it was 25 µg/mL; in data set [2] (setting [6]), 25 µg/mL; in data set [2] (setting [7]), around 38 µg/mL.

For `CCCCCCCCCCCCCCCCN` [1-Hexadecylamine], the minimum biofilm eradication concentration (MBEC) in data set [2] (setting [4]), in data set [2] (setting [5]), in data set [2] (setting [6]) and in data set [2] (setting [7]) was 200 µg/mL throughout.

On to `CCCCCCN` [1-Hexylamine], for which the minimum biofilm eradication concentration (MBEC) in data set [2] (setting [4]), in data set [2] (setting [5]) and in data set [2] (setting [6]) was 1600 µg/mL in each case.

For the molecule `CCCCCCCCN` [1-Octylamine], the minimum biofilm eradication concentration (MBEC) in data set [2] (setting [4]), in data set [2] (setting [5]), in data set [2] (setting [6]) and in data set [2] (setting [7]) was 400 µg/mL each time.

As for `CCCCCCCCCCCCCCN` [1-Tetradecylamine], the minimum biofilm eradication concentration (MBEC) in data set [2] (setting [4]), in data set [2] (setting [5]), in data set [2] (setting [6]) and in data set [2] (setting [7]) was 25 µg/mL each time.

Consider `CCCCN(C)CCCC` [CH3(C4H9)2N], for which the “MBEC, avg.” value in data set [2] (setting [8]) is listed as above 800 ppm. Also, in data set [2] (setting [9]), the “MBEC, ppm (first of duplicate runs)” value was >800, >800 ppm and the “MBEC, ppm (second of duplicate runs)” value is >800, >800 ppm.

For `CCCCCCN(C)CCCCCC` [CH3(C6H13)2N], the “MBEC, avg.” value in data set [2] (setting [8]) is above 800 ppm. In data set [2] (setting [9]), the “MBEC, ppm (first of duplicate runs)” value is recorded as >800, >800 ppm and the “MBEC, ppm (second of duplicate runs)” value was >800, >800 ppm.

For `CCCCCCCCN(C)CCCCCCCC` [CH3(C8H17)2N, Dioctylmethylamine], the minimum biofilm eradication concentration (MBEC) in data set [2] (setting [4]), in data set [2] (setting [5]), in data set [2] (setting [6]) and in data set [2] (setting [7]) was 800 µg/mL each time.

Regarding `O=c1n(Cl)c(=O)n(Cl)c(=O)n1Cl` [Cl2 (from Trichlor), trichloroisocyanuric acid], in data set [3], the “MBEC on 7-day biofilm” value was found to be 20 ppm; the “MBEC, avg., Example 4” value came to 20 ppm; the “MBEC, ppm (first of duplicate runs), Example 4” value was 20, 20 ppm; the “MBEC, ppm (second of duplicate runs), Example 4” value is reported as 20, 20 ppm. In data set [3] (setting [10]), the “MBEC, ppm (first of duplicate runs), Example 3” value is listed as 5 ppm and the “MBEC, ppm (second of duplicate runs), Example 3” value is given as above 10 ppm.

Consider `CCCCCCCCCCN(C)CCCCCCCCCC` [DAMA 1010 Amine, didecylmethylamine], for which the minimum biofilm eradication concentration (MBEC) in data set [2] (setting [4]), in data set [2] (setting [5]), in data set [2] (setting [6]) and in data set [2] (setting [7]) was 400 µg/mL throughout.

Regarding `CCCCCCCCCC[N+](C)(C)CCCCCCCCCC.[Cl-]` [DAQ 1010, Didecyldimethyl ammonium chloride], in data set [3], the “MBEC on 7-day biofilm” value was found to be 75 ppm; the “MBEC, avg., Example 4” value is on record as 75 ppm; the “MBEC, ppm (first of duplicate runs), Example 4” value worked out at 100 ppm; the “MBEC, ppm (second of duplicate runs), Example 4” value worked out at 50 ppm. Further, in data set [2] (read-out: MBEC, 24-hour biofilm, 1 hour contact, blends: total biocide), the MBC was around 38 µg/mL. The MBC in data set [2] (setting [11]) worked out at 50 µg/mL. The MBC in data set [2] (setting [12]) amounted to 25 µg/mL.

Regarding `CCCCNCCCC` [N,N-Dibutylamine], the logKow experimental in data set [1] is on record as 2.76. The minimum biofilm eradication concentration (MBEC) in data set [2] (setting [4]), in data set [2] (setting [5]) and in data set [2] (setting [6]) was above 1600 µg/mL throughout.

With `CCCCN(C)C` [N,N-Dimethylbutylamine], the logKow experimental in data set [1] is reported as 1.70.

For `CCCCCCCCCCN(C)C` [N,N-Dimethyldecylamine], the minimum biofilm eradication concentration (MBEC) in data set [2] (setting [4]), in data set [2] (setting [5]) and in data set [2] (setting [6]) was above 400 µg/mL in each case.

With `CCCCCCCCCCCCN(C)C` [N,N-Dimethyldodecylamine], the MBC in data set [2] (setting [11]), in data set [2] (setting [13]) and in data set [2] (setting [12]) was above 200 µg/mL each time.

As for `CCCCCCCCCCCCCCCCN(C)C` [N,N-Dimethylhexadecylamine], the “biofilm deactivation at 200 ppm (regrowth optical density measurements)” value in data set [2] is given as “evidence of biofilm deactivation”. Also, the minimum biofilm eradication concentration (MBEC) in data set [2] (setting [4]) was above 200 µg/mL; in data set [2] (setting [5]) it was above 200 µg/mL; in data set [2] (setting [6]) it was above 200 µg/mL; in data set [2] (setting [7]) it was 400 to 800 µg/mL.

Consider `CCCCCCCCN(C)C` [N,N-Dimethyloctylamine], for which the minimum biofilm eradication concentration (MBEC) in data set [2] (setting [4]), in data set [2] (setting [5]) and in data set [2] (setting [6]) was above 800 µg/mL in each case.

On to `CCCCCCCCCCCCCCN(C)C` [N,N-Dimethyltetradecylamine], for which the “biofilm deactivation at 200 ppm (regrowth optical density measurements)” value in data set [2] is “evidence of biofilm deactivation”. The minimum biofilm eradication concentration (MBEC) in data set [2] (setting [4]) was above 200 µg/mL; in data set [2] (setting [5]) it was above 200 µg/mL; in data set [2] (setting [6]), above 200 µg/mL; in data set [2] (setting [7]), 400 to 800 µg/mL.

On to `CCCCCCCCNCCCCCCCC` [N,N-Dioctylamine], for which the minimum biofilm eradication concentration (MBEC) in data set [2] (setting [4]), in data set [2] (setting [5]), in data set [2] (setting [6]) and in data set [2] (setting [7]) was 1600 µg/mL throughout.

As for `OC[P+](CO)(CO)CO.[Cl-]` [THPC, tetrakis(hydroxymethyl)phosphonium chloride, reference compound], the MBC in data set [2] (setting [11]), in data set [2] (setting [13]) and in data set [2] (setting [12]) was 100 µg/mL each time.

As for `O=CCCCC=O` [glutaraldehyde, reference compound], the “MBEC on 7-day biofilm” value in data set [3] was “about 200 ppm”. Also, in data set [3] (setting [10]), the “MBEC, avg., Example 3” value is “˜200 ppm”. Besides, the “MBEC, ppm (first of duplicate runs), Example 3” value in data set [3] (setting [10]) is listed as 100 ppm. Further, the “MBEC, ppm (second of duplicate runs), Example 3” value in data set [3] (setting [10]) is above 200 ppm. Further, the minimum biofilm eradication concentration (MBEC) was 50 µg/mL in data set [2] (setting [4]), 50 µg/mL in data set [2] (setting [5]), 50 µg/mL in data set [2] (setting [6]) and 50 to 100 µg/mL in data set [2] (setting [7]).
